Reference: PubChem BioAssay (NCI)
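Exposure lasted 48 hours, with cells grown in 96-well plates and compounds tested at five concentrations. Abbreviation: GI50, concentration required for 50% inhibition of growth. TGI marks complete inhibition of growth.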

Legend:
Test in all cases: NCI-60 cell line screen, 48 h
HT29 colon = system: HT29 colon
OVCAR-4 ovarian = system: OVCAR-4 ovarian
CCRF-CEM leukemia = system: CCRF-CEM leukemia
HL-60(TB) leukemia = system: HL-60(TB) leukemia
NCI-H460 lung = system: NCI-H460 lung
MALME-3M melanoma = system: MALME-3M melanoma
SK-MEL-2 melanoma = system: SK-MEL-2 melanoma
SF-295 CNS = system: SF-295 CNS
HOP-92 NSCLC = system: HOP-92 NSCLC
MDA-MB-231 breast = system: MDA-MB-231 breast

Row | Structure (SMILES) | TGI (HT29 colon) [µM] | TGI (OVCAR-4 ovarian) [µM] | TGI (CCRF-CEM leukemia) [µM] | TGI (HL-60(TB) leukemia) [µM] | TGI (NCI-H460 lung) [µM] | TGI (MALME-3M melanoma) [µM] | TGI (SK-MEL-2 melanoma) [µM] | TGI (SF-295 CNS) [µM] | TGI (HOP-92 NSCLC) [µM] | GI50 (HT29 colon) [µM] | GI50 (MDA-MB-231 breast) [µM] | TGI (MDA-MB-231 breast) [µM] | GI50 (OVCAR-4 ovarian) [µM] | GI50 (CCRF-CEM leukemia) [µM] | GI50 (NCI-H460 lung) [µM] | GI50 (MALME-3M melanoma) [µM] | GI50 (SK-MEL-2 melanoma) [µM] | GI50 (SF-295 CNS) [µM] | GI50 (HOP-92 NSCLC) [µM] | GI50 (HL-60(TB) leukemia) [µM]
1 | O=C(N/N=C1\C(=O)N(c2nccs2)C(=O)C(=O)C1c1nc2ccccc2s1)c1ccccc1O (centres undefined) | > 100 | > 100 | > 100 | > 100 | > 100 | > 100 | > 100 | > 100 | > 100 |  |  |  |  |  |  |  |  |  |  | 
2 | O=C(NO)[C@@H](Cc1ccccc1)NS(=O)(=O)c1ccc(-c2ccccc2)cc1 | > 25 | > 25 | > 25 |  | > 25 | > 25 | > 25 | > 25 | 20.9 | > 25 | > 25 | > 25 | > 25 | > 25 | 13.6 | > 25 | > 25 | > 25 | 4.7 | 
3 | CO/N=C(\COc1ccc2oc(-c3ccccc3)cc(=O)c2c1)c1ccc(OC)cc1 | 48.6 | 73.9 | 74.8 | > 100 |  | 63.8 | > 100 | 48.9 |  | 19.7 | 22 | 45.2 | 19.7 | 29.7 |  | 24.8 | 31 | 21.7 |  | 6.16
4 | CCCN(CCC)c1ccc(/C=N/NC(=O)c2cccnc2)c(OC)c1 | 55 | 82.8 | > 100 | 59.2 | 75.4 | 50.4 |  | 77.8 | 61.8 | 15.8 |  |  | 23.5 | 25.5 | 24.1 | 18.8 |  | 19 | 13.4 | 22.7
5 | Nc1n[n+](-c2ccccc2)no1 | > 100 | > 100 | > 100 | > 100 | > 100 | > 100 |  | > 100 | 92.9 |  |  |  |  |  |  |  |  |  |  | 
6 | CC1=C(O)/C(=C/C(C)CCC/C(C)=C/C=C/C(C)CCCc2ccoc2)OC1=O (centres undefined) | > 100 | 85.3 |  | 63.8 | > 100 | 49.4 | 57.9 | 81 |  |  |  |  |  |  |  |  |  |  |  | 
7 | N#CC1(C#N)C2C=CC(c3coc4cccc2c34)C1(C#N)C#N (centres undefined) | 41.6 | 47.9 | 6.71 | 3.44 | 37.4 | 18.8 | 92.6 | 42.8 | 35 |  |  |  |  |  |  |  |  |  |  | 
8 | NS(=O)(=O)CC1CC[CH-]CC1.[Cl-].[Cl-].[Cl-].[Cl-].[Cl-].[Sb+5].c1ccncc1 | > 100 | > 100 |  |  | > 100 | > 100 | > 100 | > 100 | > 100 | > 100 | > 100 | > 100 | > 100 |  | > 100 | > 100 | > 100 | > 100 | > 100 | 
